Experimental data from patent US20250032477A1, “COMPOUNDS, PHARMACEUTICAL COMPOSITIONS, AND METHODS FOR THE TREATMENT, PREVENTION, OR MANAGEMENT OF HYPERPROLIFERATIVE DISORDERS” (VINCERX PHARMA GMBH, priority 2021, published 2025).
Like-named read-outs stand apart in the source and are kept apart here.

Columns and labels:
[1] = test system: 786-O; assay: Cytotoxicity in vitro in the presence and absence of elastase (MTT); assay type: cell-based, human
Summary of the method: (§1)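 Cells seeded 24 h beforehand, then treated in triplicate with compound (10^−5 to 10^−13 M) alone or with 10 nM elastase for 72 h at 37 °C. Proliferation measured by MTT (4 h reagent, overnight lysis, absorbance 570 nm), normalised to untreated cells.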

[2] = test system: NCI H292; assay: as above; assay type: cell-based, human
Summary of the method: as §1

[3] = test system: HT29; assay: as above; assay type: cell-based, human
Summary of the method: as §1

[4] = assay type: physicochemical
From the text: pH dependent ring-opening by hydrolysis of the lactone ring is an issue in the camptothecin class of agents. It is a pH dependent equilibrium between closed lactone form and ring-opened hydroxy acid form which is shifted to the closed ring at acidic pH and to the opened form under basic conditions. Only the lactone form is active. […] The closed and hydrolyzed open forms are differentiable by mass using the LC-MS methods described herein.
Method for acidic eluent: System MS: Waters TOF instrument; System UPLC: Waters Acquity I-CLASS; Column: Waters Acquity UPLC HSS T3 1.8 μm 50×1 mm; Eluent A: 1 L Water+0.100 ml 99% Formic acid (pH 3.4); Eluent B: 1 L Acetonitrile+0.100 ml 99% Formic acid; Gradient: 0.0 min 90% A→1.2 min 5% A→2.0 min 5% A Oven: 50° C.; Flow: 0.40 ml/min; UV-Detection: 210 nm.
Method for basic eluent: System MS: Thermo Scientific FT-MS; System UHPLC+: Thermo Scientific UltiMate 3000; Column: Waters, BEH c18 1.7μ, 2.1×50 mm, Eluent A: 1 L Water+1.0 mL (25% Ammonia) (pH of eluent A=10.2); Eluent B: 1 L Acetonitrile; Gradient: 0.0 min 5% B→2.5 min 95% B→3.5 min 95% B; Oven: 50° C.; Flow: 0.90 ml/min; UV-Detection: 210 nm/Optimum Integration Path 210-300 nm.

[5] = test system: SUM149; assay: Cytotoxicity in vitro in the presence and absence of elastase (MTT); assay type: cell-based
Summary of the method: as §1

Compound	IC50 ([1]; 786-O cells, with 10 nM elastase, 72 h, MTT, read-out: 786-O IC50 w elastase) [nM]	IC50 ([1]; 786-O cells, without elastase, 72 h, MTT, read-out: 786-O IC50 w/o) [nM]	IC50 ([2]; NCI H292 cells, with 10 nM elastase, 72 h, MTT, read-out: NCI H292 IC 50 w elastase) [nM]	IC50 ([2]; NCI H292 cells, without elastase, 72 h, MTT, read-out: NCI H292 IC 50 w/o) [nM]	IC50 ([3]; HT29 cells, with 10 nM elastase, 72 h, MTT, read-out: HT29 IC50 w elastase) [nM]	IC50 ([3]; HT29 cells, without elastase, 72 h, MTT, read-out: HT29 IC50 w/o) [nM]	Lactone ring form detected by LC-MS, acidic eluent ([4]; acidic eluent (pH 3.4), UV and mass detection)	Lactone ring form detected by LC-MS, basic eluent ([4]; basic eluent (pH of eluent A=10.2), UV and mass detection)	IC50 ([5]; SUM149 cells, with 10 nM elastase, 72 h, MTT, read-out: SUM149 IC50 w elastase) [nM]	IC50 ([5]; SUM149 cells, without elastase, 72 h, MTT, read-out: SUM149 IC50 w/o) [nM]	IC50 ([1]; read-out: 786-O IC50 w elastase) [nM]	IC50 ([1]; read-out: 786-O IC50 w/o) [nM]	IC50 ([2]; read-out: NCI H292 IC 50 w elastase) [nM]	IC50 ([2]; read-out: NCI H292 IC 50 w/o) [nM]	IC50 ([3]; read-out: HT29 IC50 w elastase) [nM]	IC50 ([3]; read-out: HT29 IC50 w/o) [nM]	Lactone ring form detected by LC-MS, acidic eluent ([4]; pH 3.4)	IC50 ([5]; read-out: SUM149 IC50 w elastase) [nM]	IC50 ([5]; read-out: SUM149 IC50 w/o) [nM]
CCCNC(=O)Nc1cccc(S(=O)(=O)Nc2cccc([C@@H](CC(=O)[O-])NC(=O)Nc3ccc(NC(=O)NCCOCCOCCOCCC(=O)N[C@@H](CC(=O)[O-])C(=O)N4CCC[C@H]4C(=O)N[C@H](C(=O)O[C@]4(CC)C(=O)OCc5c4cc4n(c5=O)Cc5c-4nc4cc(F)c(C)c6c4c5[C@@H](NC(C)=O)CC6)C(C)C)cc3)c2)c1.[Na+].[Na+] [Compound 2, disodium (1S,9S)-1-acetamido-9-ethyl-5-fluoro-4-methyl-10,13-dioxo-2,3,9,10,13,15-hexahydro-1H,12H-benzo[de]pyrano[3′,4′:6,7]indolizino[1,2-b]quinolin-9-yl 1-[(2S)-2-(carboxylatomethyl)-17-{4-[({(1R)-2-carboxylato-1-[3-({3-[(propylcarbamoyl)amino]benzene-1-sulfonyl}amino)phenyl]ethyl}carbamoyl)amino]anilino}-4,17-dioxo-7,10,13-trioxa-3,16-diazaheptadecanan-1-oyl]-L-prolyl-L-valinate]	0.01 to 0.1	10 to 100	0.1 to 1	1.1 to 10	0.1 to 1	> 100	only the closed form (201)	No open form (203) was detected	0.01 to 0.1	1.1 to 10									
CCCNC(=O)Nc1cccc(S(=O)(=O)Nc2cccc([C@@H](CC(=O)O)NC(=O)Nc3ccc(NC(=O)NCCOCCOCCOCCC(=O)N[C@@H](CC(=O)O)C(=O)N4CCC[C@H]4C(=O)N[C@H](C(=O)O[C@]4(CC)C(=O)OCc5c4cc4n(c5=O)Cc5c-4nc4cc(F)c(C)c6c4c5[C@@H](N)CC6)C(C)C)cc3)c2)c1 [Compound 4, (1S,9S)-1-amino-9-ethyl-5-fluoro-4-methyl-10,13-dioxo-2,3,9,10,13,15-hexahydro-1H,12H-benzo[de]pyrano[3′,4′:6,7]indolizino[1,2-b]quinolin-9-yl N-(14-{4-[({(1R)-2-carboxy-1-[3-({3-[(propylcarbamoyl)amino]benzene-1-sulfonyl}amino)phenyl]ethyl}carbamoyl)amino]anilino}-14-oxo-4,7,10-trioxa-13-azatetradecanan-1-oyl)-L-alpha-aspartyl-L-prolyl-L-valinate]											0.01 to 0.1	1.1 to 10	0.01 to 0.1	1.1 to 10	0.01 to 0.1	10 to 100	only the closed form (301) was detected	< 0.01	1.1 to 10
